The values that follow come from patent US11648258B2, “Method and compounds for inhibiting the MCM complex and their application in cancer treatment” (priority 2012, dated 2023).

“Also recorded” adds a separate entry of the source. Like-named read-outs stand apart in the source and are kept apart here.

The target of series [1] is T1, hMcm2-hMcm6 interaction (MCM complex) (Homo sapiens, UniProt P49736+Q14566).
T1 construct: endogenous in cells; host or cells: HeLa
The series can be described thus: Co-immunoprecipitation of MCM subunits in HeLa cell extracts. Type of series: cell-based. The following applies: asynchronous HeLa cells, whole cell extracts. The method, then: To test if 17beta-Deacetyltanghinin targets hMcm2 and hMcm6 proteins in human cells, possible co-immunoprecipitation (co-IP) of the two proteins was tested in human cell extracts from cells treated with 17beta-Deacetyltanghinin. In FIG. 3, asynchronous HeLa cells were treated with DMSO or 17beta-Deacetyltanghinin (DAT) (FIG. 3A), or with DMSO, 17beta-Neriifolin (NRF) or 17beta-Deacetyltanghinin diol (Diol) (FIG. 3B), and whole cell extracts were prepared and further incubated with the compound before being used for co-IP in the presence of the compound. The immunoprecipitates were then immunoblotted with anti-hMcm 6, anti-hMcm2, anti-hMcm4 and anti-hMcm7 antibodies.

Another series has as its target T2, hMcm2 and hMcm6 (Homo sapiens, UniProt P49736+Q14566).
T2 construct: the endogenous hMcm2 and hMcm6 were detected by specific antibodies against these proteins; endogenous in cells; host or cells: HeLa
Description: Immunostaining / GFP fluorescence microscopy of MCM nuclear localization in HeLa cells. Type of series: cell-based. The conditions noted are these: 24 hrs. The method, then: To study the effect of the anticancer compounds on the interaction between hMcm2 and hMcm6 in the cells, immunostaining was performed to detect the sub-cellular localization of the proteins. HeLa cells grown on cover slips (coated with poly-D-lysine) with or without drug treatment were fixed with 4% PFA in PBS at room temperature for 20 min. After permeabilization with 0.1% Triton X-100 and 1% BSA in PBS for 20 min, cells were blocked with 1% BSA and then incubated with rabbit anti-hMcm6 (Santa Cruz; 1:500) and mouse anti-hMcm2 (Becton Dickinson; 1:500) primary antibodies at room temperature for 1 hr. Cells were then incubated with Alexa Fluor 488-conjugated donkey […] antibody and Alexa Fluor 594-conjugated donkey anti-mouse antibody (Invitrogen; 1:500) at room temperature for 1 hr. Three washes with PBS were performed after each round of antibody incubation. Cells were then incubated with Hochest 33852 (Sigma Chemical Company; 1 μg/ml) at room temperature for 15 min for nuclear staining and washed with PBS three times again. At last, cells were mounted and observed under the fluorescence microscope (Nikon TE2000E).
Because pair-wise interactions among the MCM subunits are required for the MCM heterohexameric ring structure, which is essential for their import into the nucleus, disruption of the interaction between hMcm2 and hMcm6 should destroy the hexamer and result in failure of nuclear localization of MCM proteins. To test this, we employed both indirect fluorescence microscopy (immunostaining) using antibodies against the endogenous MCM proteins and direct fluorescence microscopy after transfection with plasmids to express hMcm2-GFP and hMcm6-GFP in the cells.
In immunostaining, HeLa cells were treated by 17beta-Deacetyltanghinin for 24 hrs, and the endogenous hMcm2 and hMcm6 were detected by specific antibodies against these proteins. […] In direct fluorescence microscopy, HeLa cells expressing hMcm2-GFP and hMcm6-GFP were treated with 17beta-Deacetyltanghinin for 36 hrs starting at 4 hrs post-transfection with the plasmids expressing hMcm2-GFP and hMcm6-GFP.

The subject of series [2] is cancer cells (HeLa, HepG2). Description: Flow cytometry / Annexin V staining (cell cycle, apoptosis) in cancer cells. Type of series: cell-based, human. The conditions noted are these: cancer cells. Here is the method:
Both floating and attached cells were collected and washed once with PBS. Cells were fixed in 70% ethanol for 1 hr to overnight at −20° C., washed thoroughly with PBS, and then stained in 50 μg/ml RNase A, 0.1% Triton X-100, 0.1 mM EDTA (pH 7.4), and 50 μg/ml propidium iodide for 30 min at 4° C. Samples were analyzed with the FACSort instrument (Becton Dickinson).
Moreover, inhibition of DNA replication and subsequent induction of apoptosis by 17beta-Deacetyltanghinin could be shown by flow cytometry. In FIG. 7. Hela cells were blocked at M phase by Nocodazole (Noc.; FIG. 7A), the G1/S transition by mimosine (MMS; FIG. 7B), or at early S phase by Hydroxyurea (HU; FIG. 7C) and then released into fresh medium in the presence of 17beta-Deacetyltanghinin (DAT). The cells at different time points after release were analyzed by follow cytometry. Ayn. means asynchronous cells. Untreated cells and cells treated with the solvent DMSO could complete M, G1 and S phases after release (FIG. 7A). […] Similarly, cells released from the Mimosine (MMS) arrest (at the G1/S transition; FIG. 7B) or Hydroxyurea (HU) arrest (in early S phase; FIG. 7C) could not finish S phase in the presence of 17beta-Deacetyltanghinin.
In FIG. 8A, flow cytometry was performed to analyze the DNA contents in HepG2 and L-02 cells treated with 17beta-Deacetyltanghinin at various concentrations for 24 hrs. In FIG. 8B, Hela cells were treated with 17beta-Deacetyltanghinin for 24 hrs and labeled with Annexin V-Cy3 (Arm. Cy3) for 20 min. Mitoxantrone (MTX), a clinical anticancer drug that can induce apoptosis in cancer cells, was used as a positive control.
(In flow cytometry, cells or beads pass a laser one at a time.)

For series [3], the system named is cancer cell lines (HepG2, Hep3B, HeLa, HK1, C666-1). The series can be described thus: cells. Type of series: cell-based, human. The following applies: for anti-proliferative (anticancer) activity, in words: 48 hrs. The method, then:
(§1) For testing the anti-proliferation activity of the compounds in human cell lines and calculation of IC50, cancer cells including HepG2, HeLa and Hep3B (4×10^5 cells/well) and normal L-02 cells (5×10^5 cells/well) were respectively seeded in 96-well plates in 100 μl of culture medium and incubated for about 12 hrs at 37° C. The cells were treated with two-fold serial dilutions of the drugs for 48 hrs. Medium was removed and 100 μl of culture medium containing 1 μM WST-1 (water soluble tetrazolium-1) were added to each well. The cells were incubated for 2 hrs, and absorbance at 405 nm (reference at 630 nm) was then measured. To construct the standard curve of the relationship between cell number and absorbance at OD405, serial dilutions of cells with known cell numbers were seeded and incubated for six hrs before being measured by the WST-1 assay. The cell viability was expressed as the ratio of the number of live cells treated with a candidate compound versus that of the DMSO-treated cells.
(§2) To further test 17beta-Deacetyltanghinin and to determine the IC50 values, besides L-02 and HepG2, Hep3B (another liver cancer cell line which is p53-negative), HeLa (cervical cancer cell line), HK1 and C666-1 (nasopharyngeal carcinoma) cells and a hTert-immortalized normal nasopharyngeal cell line (NP460) were treated by 17beta-Deacetyltanghinin for 48 hrs, and the relative cell vabilities were determined by WST-1 assay (FIG. 2B, C).

The test system of series [4] is L-02 cells (normal human liver cells). Description: in vitro. The following applies: compound 0.5 ∝g/ml; WST-1. The method, then: as §1
(§3) A pair of human cell lines, L-02 (normal liver cells) and HepG2 (a liver cancer cell line) was treated with 17beta-Deacetyltanghinin for 48 hrs. […] In FIG. 2B-H, quantification of viable cell numbers was carried out using WST-1 (Water-soluble tetrazolium-1) assay.
as §2
(In general: Formazan colour is commonly taken as a measure of viable cells.)

For series [5], the system named is HepG2 cells (hepatocellular carcinoma). The conditions noted are these: compound 0.5 ∝g/ml; WST-1.
The next series is described as follows: in vitro. The following applies: human. The method, then:
as §1, §3, §2

Series [6] in a line: In vivo toxicity assessment in nude mice. The following applies: 10 mg/kg per injection, tumor-bearing nude mice. The method, then: (§4) A further set of animal experiments was then conducted with a longer period of time, in which fifteen drug injections at 5.0 mg/kg were performed one week after tumor inoculation when the tumor size reached 0.05-0.1 cm^3. In FIG. 10B, drug injections and tumor size measurements were performed on the days represented by the data points, and the photographs in FIG. 10C were taken on day 20.
In FIG. 11, S refers to solvent-treated mice without tumor inoculation; S+T represents solvent-treated mice with tumor inoculation; DAT refers to 17beta-Deacetyltanghinin-treated mice without tumor inoculation; DAT+T represents 17beta-Deacetyltanghinin-treated mice with tumor inoculation; and P+T refers to Paelitaxel-treated mice with tumor inoculation. Three out of the five mice with intermediate tumor size in each group were selected for physiological parameters examination. The tumors (T) and internal organs including liver (L), heart (H) and kidney (K) were dissected from each mouse.
Furthermore, blood from each mouse was also collected for the tests of the ALT (alanine aminotransferase) and LDH (Lactate dehydrogenase) activities. […] The results of both tests were represented as the values of differently treated mice relative to the untreated ones.

Series [7] relates to HeLa cells xenograft tumors. The series can be described thus: In vivo anticancer activity, nude mice xenograft model. The following applies: 10 mg/kg per injection, first 10 days. The method, then:
In vivo anticancer activity tests were carried out in the nude mice xenograft model by inoculating nude mice with HeLa cells in both the left and right flanks. After random grouping, nude mice were treated intraperitoneally with 17beta-Deacetyltanghinin or the solvent (30% of propylene glycol in PBS). In the first test, 3 days after tumor inoculation when small tumors started to form, two groups of nude mice were treated on days 1-3 and 6-10 with 3.5 and 7.0 mg-drug/kg-body weight of 17beta-Deacetyltanghinin respectively, and another group of control mice were treated with the same volume of the solvent (FIG. 10A). In FIG. 10A, the tumor volume data represented by the small-size data point symbol linked with thin lines were obtained on the days when both measurement of tumor size and drug injections were performed, and the tumor volume data represented by the large-size data point symbol linked with thick lines were obtained on the days without drug injection. Each tumor size was average of ten tumors in five mice in each group.
as §4

T1 sequence (P49736 2-904 limits assumed): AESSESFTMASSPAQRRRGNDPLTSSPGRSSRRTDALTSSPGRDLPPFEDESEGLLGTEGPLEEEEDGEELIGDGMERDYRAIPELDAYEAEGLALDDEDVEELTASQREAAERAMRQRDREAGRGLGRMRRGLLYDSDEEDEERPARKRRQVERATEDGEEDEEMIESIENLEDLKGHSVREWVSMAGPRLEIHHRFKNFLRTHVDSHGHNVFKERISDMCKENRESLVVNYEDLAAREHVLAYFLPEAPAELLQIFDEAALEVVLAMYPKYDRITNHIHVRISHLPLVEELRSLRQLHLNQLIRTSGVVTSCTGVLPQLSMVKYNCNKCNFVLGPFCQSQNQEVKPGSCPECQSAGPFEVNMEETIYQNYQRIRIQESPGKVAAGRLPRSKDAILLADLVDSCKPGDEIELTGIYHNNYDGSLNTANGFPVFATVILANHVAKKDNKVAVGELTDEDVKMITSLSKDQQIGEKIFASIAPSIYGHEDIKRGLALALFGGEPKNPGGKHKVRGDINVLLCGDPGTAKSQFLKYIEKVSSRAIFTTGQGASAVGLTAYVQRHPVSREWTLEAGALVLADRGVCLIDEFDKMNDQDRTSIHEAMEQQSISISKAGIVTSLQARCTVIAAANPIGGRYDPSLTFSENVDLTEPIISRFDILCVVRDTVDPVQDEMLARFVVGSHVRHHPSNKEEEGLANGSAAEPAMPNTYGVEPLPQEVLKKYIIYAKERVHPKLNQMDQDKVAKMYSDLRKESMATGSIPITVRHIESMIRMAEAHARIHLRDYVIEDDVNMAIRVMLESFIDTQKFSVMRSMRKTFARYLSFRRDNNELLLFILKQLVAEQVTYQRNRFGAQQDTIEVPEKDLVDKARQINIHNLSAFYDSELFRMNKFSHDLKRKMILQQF
T1 sequence (Q14566 whole entry): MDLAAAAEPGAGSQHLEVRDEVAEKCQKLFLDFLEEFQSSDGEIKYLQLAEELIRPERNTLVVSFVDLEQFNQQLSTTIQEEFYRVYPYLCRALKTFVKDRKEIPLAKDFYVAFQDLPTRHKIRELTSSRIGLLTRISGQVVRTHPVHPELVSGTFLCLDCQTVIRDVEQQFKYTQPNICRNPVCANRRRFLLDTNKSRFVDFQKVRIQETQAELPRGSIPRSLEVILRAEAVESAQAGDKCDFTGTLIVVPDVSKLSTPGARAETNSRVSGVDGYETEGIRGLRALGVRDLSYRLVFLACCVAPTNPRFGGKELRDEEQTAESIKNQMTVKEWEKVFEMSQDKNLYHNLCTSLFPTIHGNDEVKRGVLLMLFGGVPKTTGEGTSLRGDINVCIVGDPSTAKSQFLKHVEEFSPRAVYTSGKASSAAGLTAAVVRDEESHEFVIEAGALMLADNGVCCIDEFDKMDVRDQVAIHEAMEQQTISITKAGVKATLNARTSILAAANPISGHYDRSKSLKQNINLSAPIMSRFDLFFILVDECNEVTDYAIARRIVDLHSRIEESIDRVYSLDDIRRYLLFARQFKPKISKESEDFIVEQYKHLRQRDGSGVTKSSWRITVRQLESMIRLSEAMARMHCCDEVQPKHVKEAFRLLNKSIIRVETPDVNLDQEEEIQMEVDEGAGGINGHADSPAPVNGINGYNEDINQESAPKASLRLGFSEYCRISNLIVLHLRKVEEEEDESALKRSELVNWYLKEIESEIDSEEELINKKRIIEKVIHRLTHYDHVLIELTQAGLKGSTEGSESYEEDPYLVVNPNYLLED
T2 sequence (P49736 2-904): as the sequence (P49736 2-904 limits assumed) above
T2 sequence (Q14566 whole entry): as the sequence (Q14566 whole entry) above

For 17beta-Deacetyltanghinin diol, in [1], the “disruption of hMcm2-hMcm6 interaction (co-IP)” value was “weaker activity”. The “nuclear localization of endogenous hMcm2 and hMcm6 (immunostaining)” value at hMcm2 and hMcm6 is on record as “weaker activity”. In addition, the “induction of apoptosis (sub-G1 population, flow cytometry)” value in [2] is recorded as “able to induce apoptosis of cancer cells”. In addition, the “anti-proliferative (anticancer) activity, in words” value (“anti-proliferative” below) in series [3] (WST-1 assay) is “lower anticancer activity than 17beta-Deacetyltanghinin”.

`CO[C@H]1[C@H](O)[C@H](O[C@H]2CC[C@@]3(C)[C@@H](C2)C[C@@H]2O[C@]24[C@@H]3CC[C@]2(C)[C@H](C3=CC(=O)OC3)CC[C@]42O)O[C@@H](C)[C@@H]1O` [17alpha-Deacetyltanghinin, reference compound]: the “L-02 cell viability (%)” value in series [4] is 100%. Further, the “anti-proliferative” value in series [3] (WST-1 assay) was “little anti-proliferative activity”. The “HepG2 cell viability (%)” value in series [5] is recorded as 97.2%.

`CO[C@H]1[C@H](O)[C@H](O[C@H]2CC[C@@]3(C)[C@H](CC[C@@H]4[C@@H]3CC[C@]3(C)[C@H](C5=CC(=O)OC5)CC[C@]43O)C2)O[C@@H](C)[C@@H]1O` [17alpha-Neriifolin, reference compound]: in series [4], the “L-02 cell viability (%)” value amounted to 100%. In addition, the “anti-proliferative” value in series [3] (WST-1 assay) is recorded as “little anti-proliferative activity”. Also, the “HepG2 cell viability (%)” value in [5] came to 100%.

Consider `CO[C@H]1[C@H](O)[C@H](O[C@H]2CC[C@@]3(C)[C@H](CC[C@@H]4[C@@H]3CC[C@]3(C)[C@@H](C5=CC(=O)OC5)CC[C@]43O)C2)O[C@@H](C)[C@@H]1O` [17beta-Neriifolin], for which the “disruption of hMcm2-hMcm6 interaction (co-IP)” value in [1] is listed as “could also disrupt the hMcm2-hMcm6 interaction”. The “nuclear localization of endogenous hMcm2 and hMcm6 (immunostaining)” value on hMcm2 and hMcm6 is “as efficiently as 17beta-Deacetyltanghinin”. The “induction of apoptosis (sub-G1 population, flow cytometry)” value in series [2] is on record as “able to induce apoptosis of cancer cells”.

Broadly, the viability is a per cent measure of how many cells are alive, often set against a control. Regarding `C[C@]12CC[C@H](O)C[C@H]1CC[C@@H]1[C@@H]2CC[C@]2(C)[C@@H](c3ccc(=O)oc3)CC[C@]12O` [Bufalin], the viability in “in vitro” was 37.2%. Moreover, the “HepG2 cell viability (%)” value in [5] is given as 13.7%.

Compound `CC(=O)O[C@H]1[C@H]2O[C@]23[C@@H]2CC[C@@H]4C[C@@H](O)CC[C@]4(C)[C@H]2CC[C@]3(C)[C@H]1c1ccc(=O)oc1` [Cinobufagin] showed a viability in the series “in vitro” of 39.7%. In addition, the “HepG2 cell viability (%)” value in [5] was 1.5%.

As for `CC(=O)O[C@H]1C(=O)[C@@]2(C)[C@H]([C@H](OC(=O)c3ccccc3)[C@]3(O)C[C@H](OC(=O)[C@H](O)[C@@H](NC(=O)c4ccccc4)c4ccccc4)C(C)=C1C3(C)C)[C@]1(OC(C)=O)CO[C@@H]1C[C@@H]2O` [Paclitaxel, reference compound], the mortality from toxicity entry in series [6] is recorded as “the mice died on day 10”. For the same compound, in series [7], the “antitumor activity compared with 17beta-Deacetyltanghinin, in words” value was “much less antitumor activities”. Moreover, the “selectivity between cancer and normal cells, in words” value in series [3] is given as “did not show significant selectivity; also recorded: more toxic to normal liver cells than liver cancer cells”.

`C[C@]12CC[C@H](O)C[C@H]1CC[C@@H]1[C@@H]2CC[C@]2(C)[C@@H](c3ccc(=O)oc3)C[C@H]3O[C@]132` [Resibufogenin] showed a viability in “in vitro” of 37.9%. In addition, the “HepG2 cell viability (%)” value in series [5] was 1.4%.

In the case of `COc1cc([C@@H]2c3cc4c(cc3[C@@H](O[C@@H]3O[C@@H]5CO[C@@H](C)O[C@H]5[C@H](O)[C@H]3O)[C@H]3COC(=O)[C@H]23)OCO4)cc(OC)c1OP(=O)(O)O` [VP16, Etoposide phosphate], the “selectivity between cancer and normal cells, in words” value in series [3] (cancer vs normal cells, WST-1 assay) is recorded as “did not show significant selectivity”.
